Measured values: ChEMBL document CHEMBL1201862, “PubChem BioAssay data set” (2004)
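Test compounds were applied to cells in 96-well plates for 48 hours at 5 doses. At the GI50, growth is halved.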 Activity calls are given as the source filed them. Cut-off read from the data, not from the text of the source: active = GI50 up to about 1.1 µM and inactive = higher.

What was measured:
Assay in all cases: NCI-60 cell line screen, 48 h
RXF 631 = tested on: RXF 631
LXFL 529 = tested on: LXFL 529
DLD-1 = tested on: DLD-1
KM-20L2 = tested on: KM-20L2
DMS-273 = tested on: DMS-273
HOP-18 = tested on: HOP-18
XF498 = tested on: XF498
SNB-78 = tested on: SNB-78
DMS-114 = tested on: DMS-114

Measured: GI50

CCOC(OC1=CCCC1)C(C)[Se]c1ccccc1 (stereo not drawn)
inactive: RXF 631 16.5 µM | LXFL 529 35.7 µM | DLD-1 21.6 µM | KM-20L2 29.4 µM | DMS-273 16.9 µM | HOP-18 28.2 µM | XF498 20.4 µM | SNB-78 > 100 µM | DMS-114 6.81 µM

CCN(CC)CCCNc1ccc2nnn3c4ccc(O)cc4c(=O)c1c23
inactive: RXF 631 1.88 µM | LXFL 529 7.67 µM | DLD-1 3.48 µM | KM-20L2 5.3 µM | DMS-273 3.44 µM | HOP-18 14.3 µM | XF498 15.5 µM | SNB-78 16.4 µM | DMS-114 11.7 µM
